The term IC50 denotes the concentration that inhibits the measured activity by half.

Where two headings read alike, the source gives them in different places.

In this test the target is T1, KDM5A (Homo sapiens, UniProt P29375).
T1 construct: Full length KDM5A enzyme was expressed and purified inhouse; made in house
Description: KDM5 enzyme assay, KDM5A HTRF (Example 463). Type of test: biochemical. (Time-resolved FRET reads energy transfer from a long-lived donor to a nearby acceptor.)

[1] abbreviates: compounds of Examples 1-432, read-out: Example 463 Assay KDM5A HTRF IC50.

T1 sequence (P29375 whole entry): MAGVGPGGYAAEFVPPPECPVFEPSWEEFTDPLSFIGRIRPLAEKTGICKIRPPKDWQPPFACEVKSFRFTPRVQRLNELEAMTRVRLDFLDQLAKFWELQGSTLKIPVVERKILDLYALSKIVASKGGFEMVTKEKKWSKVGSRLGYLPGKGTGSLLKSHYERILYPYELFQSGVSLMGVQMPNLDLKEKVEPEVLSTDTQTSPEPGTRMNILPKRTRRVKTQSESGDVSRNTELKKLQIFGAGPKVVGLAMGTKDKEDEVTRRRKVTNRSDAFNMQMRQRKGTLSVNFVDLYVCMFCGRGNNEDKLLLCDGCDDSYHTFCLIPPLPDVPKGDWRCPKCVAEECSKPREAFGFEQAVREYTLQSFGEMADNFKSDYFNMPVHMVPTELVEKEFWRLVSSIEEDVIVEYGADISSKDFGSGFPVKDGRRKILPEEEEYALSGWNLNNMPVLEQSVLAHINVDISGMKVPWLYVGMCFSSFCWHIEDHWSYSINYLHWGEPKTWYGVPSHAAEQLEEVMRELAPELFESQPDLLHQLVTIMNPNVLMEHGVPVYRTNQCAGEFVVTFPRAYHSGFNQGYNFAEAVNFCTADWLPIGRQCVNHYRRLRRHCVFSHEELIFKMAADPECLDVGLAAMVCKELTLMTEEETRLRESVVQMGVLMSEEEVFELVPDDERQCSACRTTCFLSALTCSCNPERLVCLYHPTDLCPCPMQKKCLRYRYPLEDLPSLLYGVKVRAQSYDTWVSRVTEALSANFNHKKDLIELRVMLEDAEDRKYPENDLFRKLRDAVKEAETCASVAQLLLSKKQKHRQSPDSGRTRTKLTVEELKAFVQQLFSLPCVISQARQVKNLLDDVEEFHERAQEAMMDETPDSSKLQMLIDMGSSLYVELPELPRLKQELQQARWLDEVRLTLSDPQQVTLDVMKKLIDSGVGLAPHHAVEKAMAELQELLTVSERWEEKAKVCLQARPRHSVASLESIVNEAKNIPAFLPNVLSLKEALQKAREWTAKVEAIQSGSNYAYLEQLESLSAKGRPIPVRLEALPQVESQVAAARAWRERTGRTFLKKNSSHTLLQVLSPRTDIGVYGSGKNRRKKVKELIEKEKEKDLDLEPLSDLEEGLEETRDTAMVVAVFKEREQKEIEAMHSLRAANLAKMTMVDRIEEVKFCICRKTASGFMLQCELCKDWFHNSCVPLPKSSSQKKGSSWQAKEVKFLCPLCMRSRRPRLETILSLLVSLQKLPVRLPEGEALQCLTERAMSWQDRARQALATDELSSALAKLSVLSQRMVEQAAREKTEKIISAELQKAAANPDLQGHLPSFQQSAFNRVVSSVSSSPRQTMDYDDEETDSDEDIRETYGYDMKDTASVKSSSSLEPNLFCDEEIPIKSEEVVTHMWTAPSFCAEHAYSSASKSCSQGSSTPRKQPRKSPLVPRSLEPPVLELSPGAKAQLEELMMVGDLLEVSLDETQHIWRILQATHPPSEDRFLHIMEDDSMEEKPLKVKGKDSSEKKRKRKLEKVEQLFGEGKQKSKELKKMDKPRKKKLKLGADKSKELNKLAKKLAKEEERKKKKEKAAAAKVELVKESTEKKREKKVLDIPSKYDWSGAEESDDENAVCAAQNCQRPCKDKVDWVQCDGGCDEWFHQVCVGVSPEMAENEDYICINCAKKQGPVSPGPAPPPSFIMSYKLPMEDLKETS
Description: Full length KDM5A enzyme was expressed and purified inhouse. Biotin-H3K4me3 peptide was purchased from New England Biolabs. HTRF reagents (containing Eu-labeled H3K4me1-2 antibody, and streptavidin-XL665) were purchased from Cis-Bio International. Plates were read on an Envision multi-label plate reader Perkin Elmer).
The HTRF assay mixture contained 2 nM full length KDM5A enzyme, 100 nM H3K4Me3 peptide substrate, 1 uM 2-OG, 100 uM Fe^2+, 500 uM ascorbate. 50 mM HEPES pH 7.0 buffer, 0.01% Triton-X 100, 2 mM DTT. […] The plates were incubated at room temperature for 60 minutes and then read in the Envision plate reader.

As for `C#CCc1c(-c2ccccc2)[nH]c2c(C#N)cnn2c1=O` [Example 37, 7-Oxo-5-phenyl-6-(prop-2-yn-1-yl)-4,7-dihydropyrazolo[1,5-a]pyrimidine-3-carbonitrile], the IC50 under setting [1] was determined as 24 nM.

In the case of `C#CC(C)c1c(-c2cnn(C(C)C)c2)[nH]c2c(C#N)cnn2c1=O` (centres unmarked) [Example 38, 5-(1-isopropylpyrazol-4-yl)-6-(1-methylprop-2-ynyl)-7-oxo-4H-pyrazolo[1,5-a]pyrimidine-3-carbonitrile], under setting [1], the IC50 is 36 nM.

For `CC(c1c(-c2ccccc2)[nH]c2c(C#N)cnn2c1=O)C1CC1` (centres unmarked) [Example 39, 6-(1-cyclopropylethyl)-7-oxo-5-phenyl-4H-pyrazolo[1,5-a]pyrimidine-3-carbonitrile], the IC50 under setting [1] was 128 nM.

With `CCc1c(-c2cccc(-c3ccccc3)c2)[nH]c2c(C#N)cnn2c1=O` [Example 40, 5-([1,1′-Biphenyl]-3-yl)-6-ethyl-7-oxo-4,7-dihydropyrazolo[1,5-a]pyrimidine-3-carbonitrile], under setting [1], the IC50 stood at 10 nM.

Consider `CCc1c(-c2cccc(Nc3ccc(F)cc3)c2)[nH]c2c(C#N)cnn2c1=O` [Example 41, 6-Ethyl-5-(3-((4-fluorophenyl)amino)phenyl)-7-oxo-4,7-dihydropyrazolo[1,5-a]pyrimidine-3-carbonitrile], for which, under setting [1], the IC50 was determined as 19 nM.

As to `CC(C)c1c(-c2cccc(N3CCCC3=O)c2)[nH]c2c(C#N)cnn2c1=O` [Example 42, 6-isopropyl-7-oxo-5-(3-(2-oxopyrrolidin-1-yl)phenyl)-4,7-dihydropyrazolo[1,5-a]pyrimidine-3-carbonitrile], the IC50 under setting [1] turned out to be 21 nM.

As for `N#Cc1cnn2c(=O)cc(-c3cc(N)cc(-c4ccccc4)c3)[nH]c12` [Example 43, 5-(3-amino-5-phenyl-phenyl)-7-oxo-4H-pyrazolo[1,5-a]pyrimidine-3-carbonitrile], the IC50 under setting [1] worked out at 83 nM.

Consider `CC(=O)Nc1cc(-c2ccccc2)cc(-c2cc(=O)n3ncc(C#N)c3[nH]2)c1` [Example 44, N-[3-(3-Cyano-7-oxo-4H-pyrazolo[1,5-a]pyrimidin-5-yl)-5-phenyl-phenyl]acetamide], for which the half-inhibitory concentration (IC50) under setting [1] was determined as 368 nM.

In turn, `N#Cc1cnn2c(=O)c(Br)c(-c3ccccc3)[nH]c12` [Example 45, 6-Bromo-7-oxo-5-phenyl-4,7-dihydropyrazolo[1,5-a]pyrimidine-3-carbonitrile] returned an IC50 of 30 nM.

With `Cc1[nH]c2c(C#N)cnn2c(=O)c1-c1ccco1` [Example 46, 6-(2-Furyl)-5-methyl-7-oxo-4H-pyrazolo[1,5-a]pyrimidine-3-carbonitrile], the IC50 under setting [1] turned out to be 2900 nM.

As to `CC(C)c1c(Nc2ccccc2)[nH]c2c(C#N)cnn2c1=O` [Example 47, 6-isopropyl-7-oxo-5-(phenylamino)-4,7-dihydropyrazolo[1,5-a]pyrimidine-3-carbonitrile], the IC50 under setting [1] came out at 24 nM.

Consider `CC(C)c1c(N2CCCCC2)[nH]c2c(C#N)cnn2c1=O` [Example 48, 6-isopropyl-7-oxo-5-(piperidin-1-yl)-4,7-dihydropyrazolo[1,5-a]pyrimidine-3-carbonitrile], for which, under setting [1], the IC50 turned out to be 84 nM.

For `CC(C)c1c(Oc2ccccc2)[nH]c2c(C#N)cnn2c1=O` [Example 49, 6-isopropyl-7-oxo-5-phenoxy-4,7-dihydropyrazolo[1,5-a]pyrimidine-3-carbonitrile], the IC50 under setting [1] stood at 25 nM.

For the compound `CC(C)c1c(-c2coc3ccccc23)[nH]c2c(C#N)cnn2c1=O` [Example 50], the IC50 under setting [1] stood at 20 nM.

Regarding `CC(C)c1c(-c2ccn(-c3ccccc3)n2)[nH]c2c(C#N)cnn2c1=O` [Example 51], the IC50 under setting [1] stood at 8.3 nM.

Regarding `CC(C)c1c(-c2ccc(C3CC3)o2)[nH]c2c(C#N)cnn2c1=O` [Example 52], the IC50 under setting [1] was determined as 5.8 nM.

Turning to `Cc1occc1-c1[nH]c2c(C#N)cnn2c(=O)c1C(C)C` [Example 53], the IC50 under setting [1] came to 17 nM.

On to `CC(C)c1c(-c2cnn(-c3ccccc3)c2)[nH]c2c(C#N)cnn2c1=O` [Example 54], for which the IC50 under setting [1] amounted to 6 nM.

`CCn1cc(-c2[nH]c3c(C#N)cnn3c(=O)c2C(C)C)cn1` [Example 55]: under setting [1], the IC50 was 11 nM.

Turning to `CC(C)c1c(-c2ccc(=O)n(C)c2)[nH]c2c(C#N)cnn2c1=O` [Example 56], the IC50 under setting [1] was found to be 16 nM.

In the case of `CCc1c(-c2ccco2)[nH]c2c(C#N)cnn2c1=O` [Example 57], the IC50 under setting [1] came out at 5.7 nM.

Consider `CC(C)c1c(-c2cc(C3CC3)co2)[nH]c2c(C#N)cnn2c1=O` [Example 58], for which the IC50 under setting [1] amounted to 7.3 nM.

Turning to `CC(C)c1c(-c2ccc(-c3ccccc3)o2)[nH]c2c(C#N)cnn2c1=O` [Example 59], the half-maximal inhibitory concentration (IC50) under setting [1] turned out to be 34 nM.

Consider `CC(C)c1c(-c2cnn(C(C)C)c2)[nH]c2c(C#N)cnn2c1=O` [Example 60], for which, under setting [1], the IC50 worked out at 19 nM.

On to `CC(C)c1c(-c2cncnc2)[nH]c2c(C#N)cnn2c1=O` [Example 61], for which the IC50 under setting [1] is 10 nM.

As to `Cc1cncc(-c2[nH]c3c(C#N)cnn3c(=O)c2C(C)C)c1` [Example 62], under setting [1], the half-inhibitory concentration (IC50) was 12 nM.

On to `CC(C)c1c(-c2ccn(C)n2)[nH]c2c(C#N)cnn2c1=O` [Example 63], for which the IC50 under setting [1] came to 15 nM.

On to `CC(C)c1c(-c2ccccc2F)[nH]c2c(C#N)cnn2c1=O` [Example 66], for which, under setting [1], the IC50 was 14 nM.

Consider `CC(C)c1c(-c2ccc(C#N)cc2)[nH]c2c(C#N)cnn2c1=O` [Example 67], for which, under setting [1], the IC50 stood at 10 nM.

Take `COc1ccc(-c2[nH]c3c(C#N)cnn3c(=O)c2C(C)C)cc1` [Example 68]: the IC50 under setting [1] is 13 nM.

As for `CC(C)c1c(-c2ccc(C(F)(F)F)cc2)[nH]c2c(C#N)cnn2c1=O` [Example 69], the IC50 under setting [1] came out at 21 nM.

Regarding `CC(C)c1c(-c2ccc(F)cc2)[nH]c2c(C#N)cnn2c1=O` [Example 70], the IC50 under setting [1] was found to be 7.8 nM.

Turning to `CCc1c(-c2cnn(Cc3ccccc3)c2)[nH]c2c(C#N)cnn2c1=O` [Example 71], under setting [1], the IC50 was determined as 4.5 nM.

On to `CC(C)c1c(-c2cnn(Cc3ccccc3)c2)[nH]c2c(C#N)cnn2c1=O` [Example 72], for which, under setting [1], the IC50 amounted to 10 nM.

`CC(C)c1c(-c2cncc(Cl)c2)[nH]c2c(C#N)cnn2c1=O` [Example 73]: the IC50 under setting [1] came to 7.3 nM.

Turning to `CC(C)c1c(-c2cncc(F)c2)[nH]c2c(C#N)cnn2c1=O` [Example 74], the IC50 under setting [1] came out at 4 nM.

Take `C=C(C)c1[nH]c2c(C#N)cnn2c(=O)c1C(C)C` [Example 75]: under setting [1], the IC50 was found to be 10 nM.

Take `C=Cc1[nH]c2c(C#N)cnn2c(=O)c1C(C)C` [Example 76]: the half-inhibitory concentration (IC50) under setting [1] amounted to 6 nM.

As for `CC(C)c1c(-c2ccnn2C)[nH]c2c(C#N)cnn2c1=O` [Example 77], the IC50 under setting [1] is 12 nM.

As for `CC(C)c1c(-c2cc(CO)co2)[nH]c2c(C#N)cnn2c1=O` [Example 78], under setting [1], the half-inhibitory concentration (IC50) was 7.7 nM.

For `CC(C)c1c(-c2cccc(C#N)c2)[nH]c2c(C#N)cnn2c1=O` [Example 79], the IC50 under setting [1] is 13 nM.

In the case of `CC(C)c1c(-c2ccn[nH]2)[nH]c2c(C#N)cnn2c1=O` [Example 80], under setting [1], the IC50 was 6.8 nM.

Turning to `CC(C)c1c(-c2ccco2)[nH]c2c(C#N)cnn2c1=O` [Example 81], the IC50 under setting [1] came out at 6.5 nM.

Turning to `CC(C)c1c(C2=CCOC2)[nH]c2c(C#N)cnn2c1=O` [Example 82], under setting [1], the IC50 was found to be 12 nM.

In the case of `CC(C)c1c(-c2ccsc2)[nH]c2c(C#N)cnn2c1=O` [Example 83], the IC50 under setting [1] was determined as 12 nM.

On to `CC(C)c1c(-c2cccs2)[nH]c2c(C#N)cnn2c1=O` [Example 84], for which, under setting [1], the half-inhibitory concentration (IC50) worked out at 8.3 nM.

As to `CC(C)c1c(-c2cnn(C)c2)[nH]c2c(C#N)cnn2c1=O` [Example 85], under setting [1], the IC50 was 12 nM.

As to `Cc1ccc(-c2[nH]c3c(C#N)cnn3c(=O)c2C(C)C)o1` [Example 86], the IC50 under setting [1] came to 4.5 nM.

Consider `CC(C)c1c(-c2ccc(CO)o2)[nH]c2c(C#N)cnn2c1=O` [Example 87], for which the IC50 under setting [1] worked out at 7.5 nM.

Turning to `CC(C)c1c(-c2cccc(C(F)(F)F)c2)[nH]c2c(C#N)cnn2c1=O` [Example 88], the IC50 under setting [1] was determined as 14 nM.

Turning to `COc1cccc(-c2[nH]c3c(C#N)cnn3c(=O)c2C(C)C)c1` [Example 89], under setting [1], the IC50 turned out to be 10 nM.

For the compound `CC(C)c1c(-c2cccc(F)c2)[nH]c2c(C#N)cnn2c1=O` [Example 90], the IC50 under setting [1] is 9 nM.

The compound `CC(C)c1c(-c2cccnc2)[nH]c2c(C#N)cnn2c1=O` [Example 91] showed an IC50 of 12 nM.

`CCc1c(-c2cn[nH]c2)[nH]c2c(C#N)cnn2c1=O` [Example 92]: the IC50 under setting [1] was determined as 5.5 nM.

On to `CC(C)c1c(-c2cnn(S(C)(=O)=O)c2)[nH]c2c(C#N)cnn2c1=O` [Example 93], for which the IC50 under setting [1] was found to be 13 nM.

As to `CC(C)c1c(-c2cnn(C3CCCC3)c2)[nH]c2c(C#N)cnn2c1=O` [Example 94], the half-maximal inhibitory concentration (IC50) under setting [1] amounted to 12 nM.

For `CC(C)c1c(-c2cnn(Cc3ccsc3)c2)[nH]c2c(C#N)cnn2c1=O` [Example 95], the IC50 under setting [1] worked out at 11 nM.

Consider `CC(C)c1c(-c2ccc(Cl)c(C(=O)N3CCOCC3)c2)[nH]c2c(C#N)cnn2c1=O` [Example 96], for which the IC50 under setting [1] is 34 nM.

In the case of `CC(C)c1c(-c2ccc(C(=O)NC3CCCC3)c(Cl)c2)[nH]c2c(C#N)cnn2c1=O` [Example 97], the half-inhibitory concentration (IC50) under setting [1] is 38 nM.

On to `CC(C)c1c(-c2cnn(C(C)(C)CO)c2)[nH]c2c(C#N)cnn2c1=O` [Example 98], for which the IC50 under setting [1] is 37 nM.

`COc1cccc(Cn2cc(-c3[nH]c4c(C#N)cnn4c(=O)c3C(C)C)cn2)c1` [Example 99]: the IC50 under setting [1] is 6 nM.

For `CC(C)c1c(-c2cnn(Cc3ccncc3)c2)[nH]c2c(C#N)cnn2c1=O` [Example 100], under setting [1], the IC50 was found to be 8 nM.

For the compound `CC(C)c1c(-c2cnn(Cc3ccccc3Cl)c2)[nH]c2c(C#N)cnn2c1=O` [Example 101], the IC50 under setting [1] was determined as 8.5 nM.

`CC(C)c1c(-c2cnn(Cc3cccc(Oc4ccccc4)c3)c2)[nH]c2c(C#N)cnn2c1=O` [Example 102]: the IC50 under setting [1] was determined as 10 nM.

As to `CC(C)c1c(-c2cnn(Cc3ccc(Oc4ccccc4)cc3)c2)[nH]c2c(C#N)cnn2c1=O` [Example 103], the IC50 under setting [1] worked out at 5.5 nM.

Turning to `CC(C)c1c(-c2cnn(C3CCCCC3)c2)[nH]c2c(C#N)cnn2c1=O` [Example 104], the IC50 under setting [1] is 21 nM.

`CC(C)c1c(-c2cnn(C(C)c3ccccc3)c2)[nH]c2c(C#N)cnn2c1=O` (centres unmarked) [Example 105]: the IC50 under setting [1] was found to be 8 nM.

Turning to `CC(C)c1c(-c2cnn(C3CCC3)c2)[nH]c2c(C#N)cnn2c1=O` [Example 106], under setting [1], the IC50 came out at 18 nM.
